In patent US8476300B2, “Selective estrogen receptor modulator for the treatment of osteoarthritis” (Eli Lilly and Company, priority 2008, dated 2013):

Experiments:
[1] = marker of cartilage type II collagen turnover; cited from earlier work
pCTX-II = assay: P-CTXII biomarker; type: in vivo
Text: pCTX-II is believed to be a useful biomarker reflecting efficacy relating to the treatment of OA. See for example, Garnero P et al Ann Rheum Dis 2003; 62:939-943; Mazieres B et al, Arthritis Rheum 2003; 48:5683

ERα receptor = target: T1, ERα receptor (Homo sapiens, UniProt P03372); assay: Estrogen receptor competition binding assay (3H-estradiol displacement), ERα; settings: geometric mean±standard deviation, from IC50 by Cheng-Prusoff, read-out: Ki-α
T1 sequence (P03372 1-595): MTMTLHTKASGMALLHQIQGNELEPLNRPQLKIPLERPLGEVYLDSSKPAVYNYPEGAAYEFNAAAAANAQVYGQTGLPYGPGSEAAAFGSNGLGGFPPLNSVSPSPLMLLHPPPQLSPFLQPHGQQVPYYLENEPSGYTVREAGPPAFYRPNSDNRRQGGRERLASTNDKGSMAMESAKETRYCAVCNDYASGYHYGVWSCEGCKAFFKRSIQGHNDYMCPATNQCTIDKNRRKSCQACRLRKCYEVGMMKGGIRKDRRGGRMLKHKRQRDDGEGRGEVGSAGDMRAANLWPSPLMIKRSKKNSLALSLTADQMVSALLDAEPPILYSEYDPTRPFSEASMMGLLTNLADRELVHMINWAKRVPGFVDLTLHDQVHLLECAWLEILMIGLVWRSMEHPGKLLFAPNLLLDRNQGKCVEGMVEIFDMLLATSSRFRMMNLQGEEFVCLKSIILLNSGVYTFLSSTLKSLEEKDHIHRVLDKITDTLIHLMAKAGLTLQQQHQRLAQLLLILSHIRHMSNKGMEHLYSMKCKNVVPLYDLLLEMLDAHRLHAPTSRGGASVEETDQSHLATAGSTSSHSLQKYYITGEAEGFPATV
Method: (§1) Estrogen Receptor Binding Assay:
(§2) Compounds are tested for binding affinity to both estrogen receptor types (ERα and ERβ) by a competition binding assay that measures the compound's ability to displace ^3H-estradiol from the receptors. IC50 and Ki values for both receptor types can be calculated.
(§3) A competition binding assay is run in a buffer containing 50 mM HEPES buffering reagent, pH 7.5, 1.5 mM ethylenediaminetetraacetic acid (“EDTA”), 150 mM NaCl, 10% glycerol, 1 mg/mL ovalbumin and 5 mM dithiothreitol (“DTT”), using 0.025 μCi per well ^3H-Estradiol (NEN#NET517 at 118 Ci/mmol, 1 mCi/mL), 10 ng/well ERα or ERβ receptor. A test compound is added at 10 different concentrations. Non-specific binding is determined in the presence of 1 μM of estradiol (17 β-estradiol). The binding reaction (140 μL) is incubated for 4 hours at room temperature, then 70 μl of cold DCC buffer is added to each reaction (DCC buffer contains per 50 mL of assay buffer, 750 mg of charcoal and 250 mg of dextran). Plates are mixed 8 minutes on an orbital shaker at 4° C. […] After an incubation of 2.5 hours, the plates are read in a counter. […] The Kd for ^3H-Estradiol is determined by saturation binding to ERα and ERβ receptors. The IC50 values for test compounds are converted to Ki using the Cheng-Prusoff equation, and the Kd determined by saturation binding assay.

OVX rat uterus = assay: 4-Day OVX rat uterine agonist assay; type: in vivo
Method: 4-Day OVX Rat Uterine Agonist Assay:
Seventy-five day old rats are ovariectomized and treatment is started 14 days later when circulating estradiol levels have reached minimal levels. After 4 days of treatment with 3 doses of a test compound, (6 rats per group) body weight, uterine wet weight and uterine eosinophil peroxidase (EPO) activity are measured. Cholesterol levels are also measured to compare relative ability to lower cholesterol with other SERMs. If there is any question of uterine stimulation, histological examination will determine epithelial cell height.
A significant (>10% of the increase induced by estradiol @0.1 mg/kg) and dose-responsive increase in uterine EPO activity is used as an early indicator of potential uterine agonist activity. […] None of the groups dosed with the compound of Example 1 evidenced an increase in EPO activity that was >10% of that induced by estradiol at 0.1 mg/Kg. Significant, dose-related increases in uterine endometrial thickness have also been used as an early sign of potential SERM uterine agonist activity.

OVX/MCT animals = assay: OVX/Meniscal tear model of OA; type: in vivo, rat
Method: The rat meniscal tear (MCT) model is a well-described model of OA in which joint damage and pain are induced by surgical intervention (transection of the medial meniscus) in one knee joint. In the standard MCT model using male rats, joint pathology develops progressively and is measured via joint histology at 3 weeks post-surgery.

Ishikawa cells = assay: Ishikawa cell proliferation assay (alkaline phosphatase readout; agonist and antagonist modes); type: cell-based; settings: for agonist activity: agonist mode, compound alone, versus the response to tamoxifen
Method: Ishikawa Cell Proliferation Assay:
This assay measures cell proliferation (using an alkaline phosphatase readout) in both an agonist mode in the presence of a test compound alone, and in an antagonist mode in which the ability of a test compound to block estradiol stimulation of growth is measured.
After an overnight incubation, Ishikawa cells are rinsed with Dulbecco's Phosphate Buffered Saline (“D-PBS”) without Ca^+2 and Mg^+2, and trypsinized by a 3 minute incubation with 0.25% Trypsin/EDTA, phenol red-free. Cells are re-suspended in assay medium and adjusted to 250,000 cells/mL. Approximately 25,000 cells in a 100 μl media are added to flat-bottom 96 wells microculture plates and incubated at 37° C. in a 5% CO2 humidified incubator for 24 hours. The next day, serial dilutions of compounds are prepared in assay medium (at 6 times the final concentration in the assay). The assay is run in dual mode, agonist and antagonist modes.
For the agonist mode, plates receive 25 μL/well of assay medium followed by 25 μL/well of a diluted test compound (at 6× the final concentrations). For the antagonist mode, plates receive 25 μL/well of 6 nM 17 β-estradiol (“E2”) followed by 25 μL/well of a diluted test compound (at 6× the final concentrations). After an additional 48-hour incubation at 37° C. in a 5% CO2 humidified incubator, media is aspirated from wells and 100 μL fresh assay medium is added to each microculture. Serial dilutions of compounds are prepared and added to the cells as described above. After an additional 72 hour incubation at 37° C. in a 5% CO2 humidified incubator, the assay is quenched by removing media and rinsing plates twice in D-PBS. The plates are dried for 5 minutes and frozen at −70° C. for at least 1 hour. The plates are then removed from the freezer and allowed to thaw at room temperature. After a 20-minute incubation, plates are read on a spectophotometer at 405 nm.
The data are fitted using a 4 parameter fit model to derive EC50 (for agonist mode) or IC50 (for antagonist mode) values. For the antagonist mode, a % efficacy for each compound is calculated versus E2 (1 nM) alone. For the agonist mode, a % efficacy for each compound is calculated versus the response to tamoxifen. […] The average agonist activity of the compound of Example 1 alone was 17.7%±11.3% (n=4) (arithmetric mean±standard deviation). The values for the compound of Example 1 may be compared to 4-hydroxytamoxifen which generally results in >100% agonist activity.

ERβ receptor = ERβ receptor (Homo sapiens, UniProt Q92731); assay: Estrogen receptor competition binding assay (3H-estradiol displacement), ERβ; settings: geometric mean±standard deviation, from IC50 by Cheng-Prusoff, read-out: Ki-β
Method: as §1, §2, §3

[2] = tested on: immature rat uterus (estrogen-induced uterine weight); assay: 3-Day immature rat uterus antagonist assay; type: in vivo; settings: oral, 3 days, with EE2 0.1 mg/kg
Text: 3-Day Immature Rat Uterus Antagonist Assay:
This model for uterine antagonism utilizes immature (3 week old) female rats that are highly sensitive to estrogenic stimulation of the uterus given that their circulating estrogen levels are prepubertal. The uteri from immature rats are fully responsive to exogenous estrogen, yet are quiescent in the absence of exogenous estrogen. Administration of exogenous estrogen to immature rats produces a reliable elevation of uterine weight, which can be used to study uterine antagonist effects. The rats are treated with both estradiol and 4 different concentrations of a test compound for 3 days and then uterine wet weights are measured. […]
Uterine weight/body weight ratios (UWR) are calculated for each animal. The percent inhibition of the estrogen-induced response is then calculated by the following formula: percent inhibition=100×(UWRestrogen−UWRtest compound)/(UWRestrogen−UWRcontrol)
ED50 values are derived from a semi-log regression analysis of the linear aspect of the dose response curve. Both the UWR data and the percent inhibition data are statistically analyzed by one way analysis of variance (ANOVA) with post-hoc testing by Fisher's PLSD when indicated by a p<0.05.

[3] = n=4, arithmetic mean±standard deviation

ERβ receptor, sequence (Q92731 whole entry): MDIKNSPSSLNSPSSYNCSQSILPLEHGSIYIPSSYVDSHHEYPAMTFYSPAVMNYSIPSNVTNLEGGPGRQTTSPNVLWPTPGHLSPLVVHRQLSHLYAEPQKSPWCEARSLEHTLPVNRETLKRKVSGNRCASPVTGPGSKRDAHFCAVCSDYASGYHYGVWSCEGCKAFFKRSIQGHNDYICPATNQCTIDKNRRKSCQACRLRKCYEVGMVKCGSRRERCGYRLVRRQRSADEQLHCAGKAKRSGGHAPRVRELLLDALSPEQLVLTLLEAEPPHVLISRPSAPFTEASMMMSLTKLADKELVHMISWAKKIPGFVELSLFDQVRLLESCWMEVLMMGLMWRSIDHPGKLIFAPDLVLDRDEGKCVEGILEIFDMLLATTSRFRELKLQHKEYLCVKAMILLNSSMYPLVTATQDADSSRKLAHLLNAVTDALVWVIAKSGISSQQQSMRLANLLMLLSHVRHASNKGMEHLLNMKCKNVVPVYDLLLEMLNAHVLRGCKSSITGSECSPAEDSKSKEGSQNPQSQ

Molecule	urinary levels of CTX-II [1]	melting point [°C]	pCTX-II levels compared with 17α-ethynylestradiol treatment (pCTX-II; all doses)	pCTX-II (pCTX-II; in vivo)	Ki (ERα receptor) [pM]	increase in EPO activity relative to that induced by estradiol at 0.1 mg/Kg (OVX rat uterus; all dose groups)	uterine endometrial thickness, dose related increase vs OVX group (OVX rat uterus; doses up to 10 mg/kg)	uterine EPO activity, dose related increase vs OVX group (OVX rat uterus; doses up to 10 mg/kg, 4 days, Tukey Kramer p<0.05)	doses with statistically significant pain reduction vs OVX/MCT group (OVX/MCT animals; OVX animals, meniscal tear) [mg/kg]	joint pain (OVX/MCT animals; OVX animals, meniscal tear)	reduction in joint pain compared with 17α-ethynylestradiol (OVX/MCT animals; doses of 3 and 10 mg/kg)	IC50 (Ishikawa cells; Homo sapiens, Ishikawa, antagonist mode, n=4, geometric mean±standard deviation, read-out: relative IC50) [pM]	agonist activity (Ishikawa cells; [3])	antagonist efficacy (Ishikawa cells; antagonist mode, versus E2 (1 nM) alone, n=4, arithmetic mean±standard deviation)	Ki (ERβ receptor) [pM]	ED50 (inhibition of estrogen-induced uterine weight/body weight ratio) [2] [mg/kg]
COc1ccc2c(c1)OC(C)(C)[C@@H](c1ccccc1)[C@@H]2c1ccc(OCCN2CCCC2)cc1 [levormeloxifene]	significantly decrease the urinary levels of CTX-II	–	–	–	–	–	–	–	–	–	–	–	–	–	–	–
Cc1ccc(-c2ccc3cc(O)ccc3c2Oc2ccc(OCCN3CCCCC3)cc2)s1.Cl [Example 1, 6-(5-methylthiophen-2-yl)-5-(4-(2-(piperidin-1-yl)ethoxy)phenoxy)naphthalen-2-ol hydrochloride]	–	248.82	not statistically different from those resulting from treatment with 17α-ethynylestradiol	significantly and dose-dependently reduced pCTX-II	150 ± 220	up to 10%	did not result in significant, dose related increases in uterine endometrial thickness	no significant dose related increases in EPO activity	≥ 1.0	reduced pain in a dose-dependent fashion	not statistically different from those induced by 17α-ethynylestradiol	3750 ± 1710	17.7%±11.3%	102%±8.4%	200 ± 200	0.053
4-hydroxytamoxifen [reference compound]	–	–	–	–	–	–	–	–	–	–	–	–	> 100%	–	–	–
